# What was measured:
# [1] = test system: HSP90 client proteins in U87MG s.c. tumors; experiment: Pharmacodynamic Western blot analysis of U87MG s.c. tumors; assay type: in vivo, nude mice; conditions: U87MG s.c. tumors, 40, 80 or 160 mg/kg oral every other day, 21 days
# MV4-11 AML s.c. tumor = experiment: Efficacy study in MV4-11 s.c. tumor model; assay type: in vivo, sever combined immunodeficient mice; conditions: 160 mg/kg orally q2d, three weeks, pretreatment volume 146 mm^3
# Text: In an efficacy study using MV4-11 s.c. tumor model (n=8), MV4-11 AML tumor cells (20×10^6) were implanted s.c. into sever combined immunodeficient mice.
# H1975 NSCLC s.c. tumor = experiment: Efficacy study in the H1975 s.c. tumor model (160 mg/kg q2d); assay type: in vivo, nude mice; conditions: 160 mg/kg orally q2d, 3 wk
# Procedure: H1975 NSCLC cells (5×10^6) were implanted s.c. into nude mice. Treatment with Compound-15 (160 mg/kg, orally, q2d) started when tumors reached an average volume of 160 mm^3.
# [2] = test system: H1975 orthotopic lung tumors; experiment: Pharmacodynamic study in H1975 orthotopic lung tumors; assay type: in vivo; conditions: 160 mg/kg once
# Text: Tumors were collected at various time points (n=2-3) and subjected to Western blot analysis.
# H1975 intracranial tumor = experiment: Efficacy study in H1975 intracranial metastasis model; assay type: in vivo, nude mice; conditions: Compound-15 120 mg/kg orally once every two days, lapatinib 75 mg/kg orally twice a day, 4 wk
# [3] = test system: MDA-MB-468 breast cancer orthotopic tumor; experiment: Efficacy study in the MDA-MB-468 orthotopic tumor model; assay type: in vivo, nude mice; conditions: Compound-15 120 mg/kg orally q2d, paclitaxel 12.5 mg/kg i.p. twice weekly
# A549 subcutaneous tumors = experiment: Pharmacodynamic study in K-ras-mutated A549 subcutaneous tumors; assay type: in vivo; conditions: 160 mg/kg, 6- and 24-h time points
# [4] = test system: cancer derived HSP90 complex (H1975 NSCLC cell extracts); experiment: Fluorescence polarization geldanamycin competition binding with H1975 cell extract
# [5] = test system: cancer derived HSP90 complex (H1993 NSCLC cell extracts); experiment: Fluorescence polarization geldanamycin competition binding with H1993 cell extract
# [6] = PK profile of compound 15 after oral 30 mg/kg, single dose study; assay type: in vivo, mice; conditions: female, athymic nude (CD-1 nu/nu), mouse, plasma
# Procedure: Female athymic nude (CD-1 nu/nu) were obtained from Charles River Laboratories (Wilmington, Mass.). They were housed in ventilated micro-isolator cages in Curis animal facility conditioned at temperature of 23±1° C., humidity of 50-70%, and a 12-hour light/12-hour dark cycle. The animals were fed with irradiated laboratory rodent diet ad libitum and provided with sterilized water. […] The cell pellet was diluted in HBSS (Hank's balanced salt solution) for implantation. […] The concentration for each compound in the solution was kept below 5 mg/ml. The maximum number of compound in one cassette was 6.30% Captisol (Cydex) was used for all formulation. At various time points (3 mice per time point) following compound administration, mice were euthanized with CO2, blood and tissues were collected. Blood was collected into tubes containing sodium heparin. The plasma was separated via centrifugation and stored at −40° C. before analysis. Tissues including tumors were homogenized in 0.8 ml water. An internal standard was added into the tissue homogenates. The homogenates were extracted with 1 ml ethyl acetate for three times. After evaporation, the residual was reconstituted in 0.1 ml acetonitrile for LC/MS/MS assay (Agilent HPLC 1100 Series).
# [7] = test system: H1975 (NSCLC) s.c. tumors; experiment: PD study after single oral dosing in H1975 (NSCLC) s.c. tumors; assay type: in vivo; conditions: single oral dosing 80 mg/kg, 8 h
# H1975 NSCLC cells = experiment: Western blot of H1975 NSCLC cells after short-term treatment; assay type: cell-based; conditions: 1 μmol/L for 7 hours
# [8] = test system: HSP90 client proteins in H1975 subcutaneous tumors; experiment: Pharmacodynamic study in H1975 subcutaneous tumors, single dose; assay type: in vivo; conditions: single dose 160 mg/kg
# [9] = test system: A549 orthotopic lung tumor; experiment: Efficacy study in A549 orthotopic lung tumor model; assay type: in vivo, nude mice; conditions: Compound-15 120 mg/kg orally once every two days, erlotinib 50 mg/kg orally once a day, 4 wk
# [10] = Mouse brain concentrations after oral 30 mg/Kg in nude mice with U87MG xenografts; assay type: in vivo
# [11] = test system: H1975 orthotopic lung tumor; experiment: Efficacy study in the H1975 orthotopic lung tumor (NSCLC) model; assay type: in vivo, nude mice
# Procedure: Dose-dependent efficacy study of Compound-15 in H1975 orthotopic lung tumor model (n=11): Mice were treated with Compound-15 (20, 40, 80, and 120 mg/kg) starting 4 day after tumor implantation.
# [12] = test system: Colo205 colorectal cancer s.c. tumor; experiment: Efficacy study in the Colo205 s.c. tumor model; assay type: in vivo, nude mice; conditions: 120 mg/kg orally q2d
# H1993 NSCLC cells = experiment: Western blot of H1993 NSCLC cells after short-term treatment; assay type: cell-based; conditions: 1 μmol/L for 7 hours
# A549 subcutaneous tumor = experiment: Efficacy study in A549 subcutaneous tumor model; assay type: in vivo, nude mice; conditions: A549 s.c., 160 mg/kg orally once every two days
# H1975 subcutaneous tumor = experiment: Efficacy study in the H1975 subcutaneous tumor model (80, 120, 160 mg/kg); assay type: in vivo, nude mice; conditions: H1975 s.c., 80, 120, or 160 mg/kg orally once every 2 days
# Text: Cells (3.5×106) were implanted subcutaneously into nude mice.
# [13] = then compound-free medium 0, 17 or 24 hours
smiles,measurement,setting,value
"CN(C)c1cc2c(cc1Sc1nc3c(N)nccc3n1CCNCC(C)(C)C)OCO2 [Compound 15, 2-(6-(dimethylamino)benzo[d][1,3]dioxol-5-ylthio)-1-(2-(neopentylamino)ethyl)-1H-imidazo[4,5-c]pyridin-4-amine]",HSP90 client proteins in tumors (Western blot),[1],dose-dependent inhibition
same,tumor regression,MV4-11 AML s.c. tumor,complete tumor regression
same,T/C,H1975 NSCLC s.c. tumor,15.4%
same,"HSP70, apoptosis and phosphorylated-AKT in tumors (Western blot)",[2],Sustained induction of HSP70 and apoptosis and inhibition of oncoprotein phosphorylated-AKT
same,animal survival,H1975 intracranial tumor,significantly prolonged animal survival
same,tumor regression,[3],3.4%
same,HER2 and key components of the PI3K/AKT and RAF/MEK/ERK signaling pathways (Western blot),A549 subcutaneous tumors,Potent inhibition
same,HSP70 (Western blot),A549 subcutaneous tumors,concurrent induction
same,IC50,[4],61.2 nM
same,IC50,[5],74.2 nM
same,AUC(0-inf),[6],10500 ng·h/mL
same,Cmax,[6],1380 ng/mL
same,Tmax,[6],2 h
same,half-life,[6],3.3 h
same,AUC(0-t),[6]; read-out: AUC0-24,10400 ng·h/mL
same,EGFR and signaling molecules in tumors (Western blot),[7],inhibited
same,"downstream PI3K/AKT and RAF/ERK signaling (p-AKT/AKT, p-ERK/ERK levels)",H1975 NSCLC cells,suppressed
same,levels of phosphorylated-MET and total MET,H1975 NSCLC cells,reduced
same,"phosphorylated and total EGFR, MET, AKT, and MAPK (ERK)",H1975 NSCLC cells; [13],durably inhibited
same,"HSP70, a marker of HSP90 inhibition",[8],concurrent induction
same,HSP90 client proteins in tumors,[8],potent inhibition
same,mutant EGFR,[8],induced degradation
same,apoptosis (PARP and caspase-3 cleavages),[8]; 6- and 24-hour time points,robustly induced apoptosis
same,animal survival,[9],significantly prolonged animal survival
same,concentration at 0 hr,"[10]; female, athymic nude (CD-1 nu/nu), mouse, brain, oral (30 mg/Kg) delivery, U87MG xenografts, Time 0 hr, read-out: HSP90 Compounds in Mouse Brain",0 ng/g
same,concentration at 0.5 hr,"[10]; female, athymic nude (CD-1 nu/nu), mouse, brain, oral (30 mg/Kg) delivery, U87MG xenografts, Time 0.5 hr, read-out: HSP90 Compounds in Mouse Brain",66.4 ng/g
same,concentration at 1 hr,"[10]; female, athymic nude (CD-1 nu/nu), mouse, brain, oral (30 mg/Kg) delivery, U87MG xenografts, Time 1 hr, read-out: HSP90 Compounds in Mouse Brain",124 ng/g
same,concentration at 3 hr,"[10]; female, athymic nude (CD-1 nu/nu), mouse, brain, oral (30 mg/Kg) delivery, U87MG xenografts, Time 3 hr, read-out: HSP90 Compounds in Mouse Brain",257 ng/g
same,concentration at 6 hr,"[10]; female, athymic nude (CD-1 nu/nu), mouse, brain, oral (30 mg/Kg) delivery, U87MG xenografts, Time 6 hr, read-out: HSP90 Compounds in Mouse Brain",77.8 ng/g
same,concentration at 24 hr,"[10]; female, athymic nude (CD-1 nu/nu), mouse, brain, oral (30 mg/Kg) delivery, U87MG xenografts, Time 24 hr, read-out: HSP90 Compounds in Mouse Brain",3.2 ng/g
same,crossing (into brain),"[10]; nude mice with U87MG xenografts, oral 30 mg/Kg",superior results
same,AUC in mouse brain,"[10]; oral (30 mg/Kg) delivery, U87MG xenografts",1692.2 ng·h/g
same,"animal survival, dose dependence","[11]; 20, 40, 80, and 120 mg/kg, 5-wk dosing regimen",dose-dependently extended animal survival
same,animal survival,"[11]; Compound-15 120 mg/kg orally once every two days, erlotinib 50 mg/kg orally once a day, 5 wk",significantly prolonged animal survival
same,T/C,[12],14.2%
same,"downstream PI3K/AKT and RAF/ERK signaling (p-AKT/AKT, p-ERK/ERK levels)",H1993 NSCLC cells,suppressed
same,levels of phosphorylated-MET and total MET,H1993 NSCLC cells,reduced
same,"phosphorylated and total EGFR, MET, AKT, and MAPK (ERK)",H1993 NSCLC cells; [13],durably inhibited
same,T/C,A549 subcutaneous tumor,9.5%
same,tumor growth,A549 subcutaneous tumor,Tumor stasis
same,body weight,H1975 subcutaneous tumor,without significant loss
same,tumor growth,H1975 subcutaneous tumor,Dose-dependent inhibition

# Source: US8722703B2, “Fused amino pyridines for the treatment of brain tumors” (Curis, Inc., priority 2009, dated 2014)
